The target of data set [1] is Cyclin-dependent kinase 2/cyclin E1 (Homo sapiens, UniProt P24941). Description: Inhibition of full length N-terminal GST-tagged human CDK2 (1 to 298 residues)/cyclin E1 (1 to 410 residues) expressed in Sf21 cells using histone H1 as substrate preincubated for 10 mins followed by substrate and ATP addition and measured after 60 mins by ADP-Glo reagent based microplate reader assay.

Data set [2] in a line: Metabolic stability in mouse liver microsomes assessed as half life at 1 uM preincubated with compound for 10 mins followed by beta-NADPH addition measured upto 60 mins by LC-MS/MS analysis. It counts as ADME, Microsome. Conditions: time < 70 min.
Data set [3] concerns MKN-1. Kind of data set: Antiproliferative activity against human MKN-1 cells incubated for 5 days by CCK-8 assay. It counts as functional, cell-based. The note with it: MKN-1, 120 h.
In data set [4] the target is Cyclin-dependent kinase 5/CDK5 activator 1 (Homo sapiens, UniProt Q00535). Description: Inhibition of human CDK5/p25NCK using histone H1 as substrate preincubated for 10 mins followed by substrate and ATP addition and measured after 60 mins by ADP-Glo reagent based microplate reader assay. The class given is protein-complex assay.
Data set [5] has as its target CDK7/Cyclin H/MNAT1 (Homo sapiens, UniProt P50613). Description: Inhibition of recombinant human His-tagged CDK7/cyclin H/MNAT1 expressed in baculovirus expression system using histone H1 as substrate preincubated for 10 mins followed by substrate and ATP addition and measured after 60 mins by ADP-Glo reagent based microplate reader assay.
Data set [6] in a line: Clearance in CD1 mouse plasma at 1 mg/kg, iv measured upto 24 hrs by LC-MS/MS analysis. The class given is ADME, organism-based.
Data set [7] is filed under the species Homo sapiens. Kind of data set: Inhibition of CDK1/cyclin A2 (unknown origin) at 100 nM by ADP-Glo assay.
In data set [8] the target is Cyclin-dependent kinase 1 (Homo sapiens) (UniProt P06493). Kind of data set: Inhibition of CDK1 (unknown origin) at 1 uM.
The target in data set [9] is Cyclin-dependent kinase 2 (Homo sapiens) (UniProt P24941). Description: Inhibition of CDK2 in human MKN-1 cells assessed as reduction in Rb phosphorylation at Ser807/11 incubated for 24 hrs by Western blotting analysis. The note with it: dose 37-3000 nM. It counts as cell-based.
Data set [10] is described as follows: Drug uptake in CD1 mouse plasma at 10 mg/kg, po measured upto 24 hrs by LC-MS/MS analysis. The class given is ADME, organism-based. The note with it: in vivo.
In data set [11] the test system is MKN-1. Description: Induction of cell cycle arrest in human MKN-1 cells assessed as reduction in G2/M phase cells at 111.1 to 333.3 nM incubated for 24 hrs by PI staining based flow cytometry analysis. It counts as functional. The note with it: dose 111.1-333.3 nM.
The target of data set [12] is Cyclin-dependent kinase 5 (Homo sapiens) (UniProt Q00535). Kind of data set: Inhibition of CDK5 (unknown origin) at 1 uM.
The target of data set [13] is Cyclin-dependent kinase 9 (Homo sapiens) (UniProt P50750). Description: Inhibition of CDK9 (unknown origin) at 1 uM.
For data set [14], the target named is Cyclin-dependent kinase 7 (Homo sapiens) (UniProt P50613). Kind of data set: Inhibition of CDK7 (unknown origin) at 1 uM.
Data set [15] has as its target Cyclin-dependent kinase 12 (Homo sapiens) (UniProt Q9NYV4). Kind of data set: Inhibition of CDK12 (unknown origin) at 1 uM.
Data set [16] in a line: Metabolic stability in human liver microsomes assessed as half life at 1 uM preincubated with compound for 10 mins followed by beta-NADPH addition measured upto 60 mins by LC-MS/MS analysis. It counts as ADME, Microsome. Conditions: time < 70 min.
The target in data set [17] is Cyclin-dependent kinase 2 (Homo sapiens) (UniProt P24941). Description: Inhibition of CDK2 in human MKN-1 cells assessed as reduction in Rb phosphorylation at Ser780 incubated for 24 hrs by Western blotting analysis. It counts as cell-based. The note with it: dose 37-3000 nM.
Data set [18] concerns the target CDK12/Cyclin K (Homo sapiens) (UniProt O75909+Q9NYV4). Kind of data set: Inhibition of CDK12/Cyclin K (unknown origin) at 100 nM by HTRF assay. The class given is protein-complex assay.
For data set [19], the target named is Cyclin-dependent kinase 13 (Homo sapiens) (UniProt Q14004). Description: Inhibition of CDK13 (unknown origin) at 1 uM.
Data set [20] deals with MKN-1. Kind of data set: Induction of cell cycle arrest in human MKN-1 cells assessed as accumulation of cells at G0/G1 phase at 111.1 to 333.3 nM incubated for 24 hrs by PI staining based flow cytometry analysis. The class given is functional. The note with it: dose 111.1-333.3 nM.
Data set [21] addresses CDK9/cyclin T1 (Homo sapiens, UniProt P50750). Kind of data set: Inhibition of full-length recombinant N-terminal GST-tagged human CDK9 (1 to 372 residues)/His-tagged cyclinT1 (1 to 726 residues) expressed in baculovirus expression system using histone H1 as substrate preincubated for 10 mins followed by substrate and ATP addition and measured after 60 mins by ADP-Glo reagent based microplate reader assay.

Activity calls are given as the source filed them. The calls are words filed in the database; no cut-off is given here.

CDK9/cyclin T1, sequence (O60563 whole entry, the tested form may be a part): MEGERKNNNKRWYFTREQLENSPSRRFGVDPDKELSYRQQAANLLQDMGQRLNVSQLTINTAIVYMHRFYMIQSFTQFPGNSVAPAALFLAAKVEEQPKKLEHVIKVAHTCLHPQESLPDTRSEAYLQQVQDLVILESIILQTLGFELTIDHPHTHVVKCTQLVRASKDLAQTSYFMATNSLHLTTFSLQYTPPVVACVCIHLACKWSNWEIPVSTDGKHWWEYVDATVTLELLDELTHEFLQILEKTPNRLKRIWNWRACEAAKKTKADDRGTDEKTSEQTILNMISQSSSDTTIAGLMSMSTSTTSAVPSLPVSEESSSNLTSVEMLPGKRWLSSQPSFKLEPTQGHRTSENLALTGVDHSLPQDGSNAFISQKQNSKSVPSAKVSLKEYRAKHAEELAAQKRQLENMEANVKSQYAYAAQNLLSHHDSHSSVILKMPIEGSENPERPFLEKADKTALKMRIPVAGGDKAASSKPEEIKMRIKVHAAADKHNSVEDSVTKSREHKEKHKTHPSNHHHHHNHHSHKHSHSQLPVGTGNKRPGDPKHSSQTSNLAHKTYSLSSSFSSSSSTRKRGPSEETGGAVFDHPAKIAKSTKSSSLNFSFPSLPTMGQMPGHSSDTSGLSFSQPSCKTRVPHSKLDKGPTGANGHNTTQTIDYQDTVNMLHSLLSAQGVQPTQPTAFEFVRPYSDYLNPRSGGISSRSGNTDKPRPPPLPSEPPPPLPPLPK
CDK9/cyclin T1, sequence (P50750 whole entry, the tested form may be a part): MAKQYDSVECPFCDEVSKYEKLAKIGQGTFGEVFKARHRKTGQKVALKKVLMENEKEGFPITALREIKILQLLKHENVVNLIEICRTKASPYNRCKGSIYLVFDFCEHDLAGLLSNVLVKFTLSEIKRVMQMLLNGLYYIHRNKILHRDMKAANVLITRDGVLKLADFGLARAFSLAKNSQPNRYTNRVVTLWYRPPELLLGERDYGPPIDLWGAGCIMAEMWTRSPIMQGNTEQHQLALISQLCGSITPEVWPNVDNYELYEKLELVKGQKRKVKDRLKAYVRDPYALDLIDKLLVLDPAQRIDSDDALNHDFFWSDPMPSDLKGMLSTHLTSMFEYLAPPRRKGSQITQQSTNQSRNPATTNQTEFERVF
CDK7/Cyclin H/MNAT1, sequence (P51946 whole entry): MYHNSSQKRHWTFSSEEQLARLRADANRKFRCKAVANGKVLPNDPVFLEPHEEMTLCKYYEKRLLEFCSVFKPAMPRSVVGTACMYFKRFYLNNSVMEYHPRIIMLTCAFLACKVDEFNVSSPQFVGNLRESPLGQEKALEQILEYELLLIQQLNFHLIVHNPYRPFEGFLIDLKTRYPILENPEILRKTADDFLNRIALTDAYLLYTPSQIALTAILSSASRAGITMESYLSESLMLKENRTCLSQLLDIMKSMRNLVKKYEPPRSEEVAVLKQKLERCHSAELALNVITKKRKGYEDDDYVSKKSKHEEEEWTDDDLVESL
CDK7/Cyclin H/MNAT1, sequence (P50613 whole entry): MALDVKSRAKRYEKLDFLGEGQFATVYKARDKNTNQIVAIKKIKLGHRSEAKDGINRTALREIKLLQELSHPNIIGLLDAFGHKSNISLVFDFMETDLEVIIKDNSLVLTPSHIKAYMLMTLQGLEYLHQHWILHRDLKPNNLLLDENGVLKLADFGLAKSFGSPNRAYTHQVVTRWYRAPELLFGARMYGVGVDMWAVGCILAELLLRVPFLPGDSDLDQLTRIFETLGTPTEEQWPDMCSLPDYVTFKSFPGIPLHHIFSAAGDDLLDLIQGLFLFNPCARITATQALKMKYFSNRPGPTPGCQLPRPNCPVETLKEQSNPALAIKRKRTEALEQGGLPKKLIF
CDK7/Cyclin H/MNAT1, sequence (P51948 whole entry, further chain): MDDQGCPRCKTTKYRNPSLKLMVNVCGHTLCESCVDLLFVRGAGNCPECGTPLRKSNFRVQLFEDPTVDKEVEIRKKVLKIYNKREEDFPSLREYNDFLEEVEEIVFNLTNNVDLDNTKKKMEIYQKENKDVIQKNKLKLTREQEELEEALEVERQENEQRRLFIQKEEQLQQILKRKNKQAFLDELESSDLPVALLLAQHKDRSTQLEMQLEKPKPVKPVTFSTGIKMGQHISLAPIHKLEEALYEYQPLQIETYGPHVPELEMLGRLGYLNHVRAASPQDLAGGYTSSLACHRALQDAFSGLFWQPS
Cyclin-dependent kinase 5/CDK5 activator 1, sequence (Q00535 whole entry): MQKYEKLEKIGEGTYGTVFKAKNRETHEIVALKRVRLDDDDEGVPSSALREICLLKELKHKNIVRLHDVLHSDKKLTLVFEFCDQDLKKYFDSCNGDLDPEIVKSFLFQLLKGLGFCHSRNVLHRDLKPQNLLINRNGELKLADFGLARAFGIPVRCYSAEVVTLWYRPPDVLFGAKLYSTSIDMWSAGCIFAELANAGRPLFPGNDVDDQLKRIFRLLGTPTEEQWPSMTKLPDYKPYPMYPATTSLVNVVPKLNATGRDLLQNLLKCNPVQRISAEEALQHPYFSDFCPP
Cyclin-dependent kinase 5/CDK5 activator 1, sequence (Q15078 whole entry, further chain): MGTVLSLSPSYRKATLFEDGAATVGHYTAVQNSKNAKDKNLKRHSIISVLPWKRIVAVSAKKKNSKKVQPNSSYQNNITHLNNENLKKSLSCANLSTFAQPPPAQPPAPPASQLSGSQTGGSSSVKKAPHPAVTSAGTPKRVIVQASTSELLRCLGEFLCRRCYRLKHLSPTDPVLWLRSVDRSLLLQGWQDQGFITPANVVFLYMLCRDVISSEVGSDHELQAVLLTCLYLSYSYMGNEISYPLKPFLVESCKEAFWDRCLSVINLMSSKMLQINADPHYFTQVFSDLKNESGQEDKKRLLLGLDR
Cyclin-dependent kinase 13 (Homo sapiens), sequence (Q14004 whole entry, looked up): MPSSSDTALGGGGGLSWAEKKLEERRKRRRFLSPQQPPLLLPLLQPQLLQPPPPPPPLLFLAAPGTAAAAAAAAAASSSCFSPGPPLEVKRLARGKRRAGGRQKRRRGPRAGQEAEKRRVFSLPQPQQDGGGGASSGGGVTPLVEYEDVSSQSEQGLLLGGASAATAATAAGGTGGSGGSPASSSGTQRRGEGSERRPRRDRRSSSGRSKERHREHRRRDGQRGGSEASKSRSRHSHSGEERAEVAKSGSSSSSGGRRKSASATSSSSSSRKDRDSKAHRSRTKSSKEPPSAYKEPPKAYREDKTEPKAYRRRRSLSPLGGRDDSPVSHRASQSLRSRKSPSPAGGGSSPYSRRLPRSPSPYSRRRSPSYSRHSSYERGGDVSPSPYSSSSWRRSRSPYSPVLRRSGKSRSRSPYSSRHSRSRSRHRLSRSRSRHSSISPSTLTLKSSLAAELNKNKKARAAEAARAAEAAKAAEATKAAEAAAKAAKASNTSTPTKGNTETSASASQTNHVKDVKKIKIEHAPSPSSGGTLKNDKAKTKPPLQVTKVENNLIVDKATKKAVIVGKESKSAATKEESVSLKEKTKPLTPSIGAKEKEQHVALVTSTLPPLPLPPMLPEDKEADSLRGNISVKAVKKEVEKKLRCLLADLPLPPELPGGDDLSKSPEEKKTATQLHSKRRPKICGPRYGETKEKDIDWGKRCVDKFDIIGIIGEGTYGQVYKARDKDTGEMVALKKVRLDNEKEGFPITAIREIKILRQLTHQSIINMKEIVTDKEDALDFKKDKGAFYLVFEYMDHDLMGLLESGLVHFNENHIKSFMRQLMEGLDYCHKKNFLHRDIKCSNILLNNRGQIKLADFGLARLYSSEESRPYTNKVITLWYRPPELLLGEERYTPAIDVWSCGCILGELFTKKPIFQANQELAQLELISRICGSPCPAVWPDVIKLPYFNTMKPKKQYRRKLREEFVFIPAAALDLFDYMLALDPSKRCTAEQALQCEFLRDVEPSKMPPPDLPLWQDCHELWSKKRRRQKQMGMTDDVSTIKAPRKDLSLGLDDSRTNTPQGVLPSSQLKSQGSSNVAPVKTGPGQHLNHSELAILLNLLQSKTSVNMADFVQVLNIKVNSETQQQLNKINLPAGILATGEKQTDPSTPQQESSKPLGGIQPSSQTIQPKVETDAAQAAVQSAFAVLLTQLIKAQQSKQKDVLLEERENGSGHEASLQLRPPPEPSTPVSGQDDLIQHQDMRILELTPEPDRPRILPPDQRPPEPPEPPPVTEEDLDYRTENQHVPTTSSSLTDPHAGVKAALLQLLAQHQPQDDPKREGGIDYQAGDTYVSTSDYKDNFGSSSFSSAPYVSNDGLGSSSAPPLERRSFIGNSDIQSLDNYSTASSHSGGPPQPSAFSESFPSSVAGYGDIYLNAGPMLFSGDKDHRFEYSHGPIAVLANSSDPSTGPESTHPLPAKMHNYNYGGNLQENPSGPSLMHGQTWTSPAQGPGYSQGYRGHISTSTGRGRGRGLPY
Cyclin-dependent kinase 7 (Homo sapiens), sequence (P50613 whole entry): as the sequence (P50613 whole entry) above
Cyclin-dependent kinase 9 (Homo sapiens), sequence (P50750 whole entry): as the sequence (P50750 whole entry, the tested form may be a part) above
Cyclin-dependent kinase 1 (Homo sapiens), sequence (P06493 whole entry, looked up): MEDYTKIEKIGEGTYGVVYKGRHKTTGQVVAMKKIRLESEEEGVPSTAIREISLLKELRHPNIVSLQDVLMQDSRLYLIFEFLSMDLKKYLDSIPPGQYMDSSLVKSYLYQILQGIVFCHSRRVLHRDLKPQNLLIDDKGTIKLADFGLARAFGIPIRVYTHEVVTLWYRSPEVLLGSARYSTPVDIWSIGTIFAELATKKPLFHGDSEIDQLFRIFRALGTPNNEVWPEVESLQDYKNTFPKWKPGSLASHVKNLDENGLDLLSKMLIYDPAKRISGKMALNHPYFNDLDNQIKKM
Cyclin-dependent kinase 5 (Homo sapiens), sequence (Q00535 whole entry, looked up): as the sequence (Q00535 whole entry) above

For `CC(C)c1cnn2c3nc(nc12)N(CCC1CNC1)CCCCCOc1cc(S(C)(=O)=O)ccc1CN3`, affinity in data set [1] was put at a Ki of 35.3 nM.

On to `CC(C)c1cnn2c3nc(nc12)N(CC1CNC1)CCCCCOc1cc(F)c(F)cc1CN3`, for which the Ki in data set [1] turned out to be 3.4 nM. The half-life at 1 µM in data set [2] stood at 22 min. This molecule also yielded an EC50 in [3] of 1460 nM.

As for `CC(C)c1cnn2c3nc(nc12)N(CC1CCNC1)CCCCCOc1ccccc1CN3` (configuration not stated), the results for the Ki in [1], in [4] and in data set [5] were 1 nM, 3.6 nM and 9.5 nM, respectively.

As to `CC(C)c1cnn2c3nc(nc12)N(CC1CCOCC1)CCCCCOc1ccccc1CN3`, the Ki in data set [1] came out at 426 nM.

Turning to `CC(C)c1cnn2c3nc(nc12)N(CC1CCNCC1)CCCCCOc1cc(F)c(F)cc1CN3`, the results for the Ki in data set [1] and in data set [4] were 2.9 nM and 4.4 nM, respectively.

In the case of `CC(C)c1cnn2c3nc(nc12)N(CC(C)(C)CN)CCCCCOc1ccccc1CN3`, the Ki in data set [1] turned out to be 49.6 nM; in [4], 60.3 nM.

`CC(C)c1cnn2c3nc(nc12)N(CC1CNC1)CCCCCOc1cc(S(C)(=O)=O)ccc1CN3` registered a clearance in data set [6] of 159 mL/min/kg. Besides, the Ki in [1] was 1 nM. Also, the inhibition entry in data set [7], in data set [8], in data set [12], in data set [13], in data set [14] and in [15] was “Active” each time. In addition, the inhibition result in data set [18] and in [19] was “Active” in each case. Moreover, the inhibition result in [9] and in data set [17] was “Dose-Dependent Effect” each time. The Drug uptake result in [10] is on record as “Not Active”. Also, the result in [11] and in [20] was Active. Besides, the half-life at 1 µM came out at 112 min in data set [2] and 122 min in data set [16]. The EC50 in data set [3] came out at 310 nM.

For the molecule `CC(C)c1cnn2c3nc(nc12)N(CC1CNC1)CCCCCOc1cc(C#N)ccc1CN3`, the Ki in data set [1] was 35.8 nM.

`CC(C)c1cnn2c3nc(nc12)N(CC1CCN(C)CC1)CCCCCOc1ccccc1CN3`: the inhibitory constant (Ki) in [1] came to 2.7 nM; in data set [4], 1 nM; in [21], 16.3 nM; in data set [5], 60.2 nM.

For the molecule `CC(C)c1cnn2c3nc(nc12)N(C1CNC1)CCCCCOc1ccccc1CN3`, in [1], the Ki is 158 nM.

As for `CC(C)n1cnc2c3nc(nc21)N(CC1CNC1)CCCCCOc1cc(S(C)(=O)=O)ccc1CN3`, in data set [6], the clearance is 159 mL/min/kg. Further, the affinity in data set [1], expressed as Ki, was 3.6 nM. The inhibition result in data set [9] and in [17] was “Dose-Dependent Effect” in each case. Further, in [10], the Drug uptake result is “Not Active”. Further, the outcome in data set [11] and in [20] was Active. The half-life at 1 µM was 6.3 min in data set [2] and 46.2 min in data set [16]. This molecule also yielded an EC50 in data set [3] of 740 nM.

As to `CC(C)c1cnn2c3nc(nc12)N(CCC1CNC1)CCCCCOc1ccccc1CN3`, the Ki in data set [1] was determined as 48.4 nM; in data set [4] it was 28.7 nM.

Take `CC(C)c1cnn2c3nc(nc12)N(CC1CCNCC1)CCCCCOc1ccc(C(F)(F)F)cc1CN3`: the Ki in data set [1] came out at 92.3 nM.

In the case of `CC(C)c1cnn2c3nc(nc12)N(CC1CNC1)CCCCCOc1ccc(F)cc1CN3`, in data set [1], the affinity, expressed as Ki, was 1 nM. In addition, the half-life at 1 µM in data set [2] was 15.2 min. This molecule also gave an EC50 in [3] of 940 nM.

`CC(C)c1cnn2c3nc(nc12)N(CC1CCNCC1)CCCCCOc1ccc(S(C)(=O)=O)cc1CN3` had a Ki in data set [1] of 83.2 nM.

With `CC(C)c1cnn2c3nc(nc12)N(CC1CCNCC1)CCCCCOc1ccc(F)cc1CN3`, the inhibition constant (Ki) in data set [1] was found to be 3.1 nM; in [4] it was 2.5 nM.

Take `CC(C)c1cnn2c3nc(nc12)N(CC1CCNCC1)CCCCCOc1cc(S(C)(=O)=O)ccc1CN3`: the Ki in data set [1] came out at 4.9 nM; in data set [4], 2.4 nM; in data set [21] it was 2.7 nM; in [5] it was 21.3 nM.

In the case of `CC(C)c1cnn2c3nc(nc12)N(CC1CNC1)CCCCCOc1ccccc1CN3`, the Ki in data set [1] was 3 nM; in data set [4], 30.7 nM; in data set [21] it was 60 nM; in [5], 101 nM. The half-life at 1 µM was determined as 61.9 min in data set [2] and 36.1 min in [16]. The EC50 in data set [3] came to 3400 nM.

Regarding `CC(C)c1cnn2c3nc(nc12)N(CC1CNC1)CCCCCOc1cc(C(F)(F)F)ccc1CN3`, the affinity in data set [1], expressed as Ki, was 15.4 nM.

In data set [1], `CC(C)c1cnn2c3nc(nc12)N(CC1CNC1)CCCCCOc1ccc(C(F)(F)F)cc1CN3` showed a Ki of over 1000 nM.

Regarding `CC(C)c1cnn2c3nc(nc12)N(CC1CNC1)CCCCCOc1ccc(C#N)cc1CN3`, the Ki in data set [1] is over 1000 nM.

Turning to `CC(C)c1cnn2c3nc(nc12)N(CC1CCCNC1)CCCCCOc1ccccc1CN3` (configuration not stated), the inhibition constant (Ki) in data set [1] was 46.1 nM; in data set [4], 140 nM.

In the case of `CC(C)c1cnn2c3nc(nc12)N(CC1CCNCC1)CCCCCOc1cc(C#N)ccc1CN3`, the Ki came out at 9.4 nM in data set [1], 4.4 nM in [4], 5.8 nM in data set [21] and 43.4 nM in data set [5].

For the molecule `CC(C)c1cnn2c3nc(nc12)N(C[C@@H]1CNC[C@H]1O)CCCCCOc1ccccc1CN3`, the Ki in data set [1] was 0.7 nM; in data set [4], 0.9 nM; in [5], 2.8 nM.

Regarding `CC(C)c1cnn2c3nc(nc12)N(CC1CCNCC1)CCCCCOc1cc(C(F)(F)F)ccc1CN3`, the Ki in [1] turned out to be 15.1 nM; in data set [4] it was 42.1 nM; in data set [21], 43.3 nM; in data set [5] it was 161 nM.

For the origin of these results see ChEMBL document CHEMBL5550116, “Discovery of novel macrocyclic derivatives as potent and selective cyclin-dependent kinase 2 inhibitors” (Bioorg Med Chem, 2024).
